In article PMC11382572, “Structural and kinetic insights into the stereospecific oxidation of R-2,3-dihydroxypropanesulfonate by DHPS-3-dehydrogenase from Cupriavidus pinatubonensis” (Chemical Science, 2024) one finds IC50 data, which are given here for one compound.

In the test the target is T1, DHPS-3-dehydrogenase (CpHpsN) (Cupriavidus pinatubonensis, UniProt Q46N53).
T1 construct: gene hpsN
Put plainly: X-ray crystal structure, […] Å, co-crystallization; enzyme inhibition assay. Format: biochemical.

T1 sequence (Q46N53 whole entry): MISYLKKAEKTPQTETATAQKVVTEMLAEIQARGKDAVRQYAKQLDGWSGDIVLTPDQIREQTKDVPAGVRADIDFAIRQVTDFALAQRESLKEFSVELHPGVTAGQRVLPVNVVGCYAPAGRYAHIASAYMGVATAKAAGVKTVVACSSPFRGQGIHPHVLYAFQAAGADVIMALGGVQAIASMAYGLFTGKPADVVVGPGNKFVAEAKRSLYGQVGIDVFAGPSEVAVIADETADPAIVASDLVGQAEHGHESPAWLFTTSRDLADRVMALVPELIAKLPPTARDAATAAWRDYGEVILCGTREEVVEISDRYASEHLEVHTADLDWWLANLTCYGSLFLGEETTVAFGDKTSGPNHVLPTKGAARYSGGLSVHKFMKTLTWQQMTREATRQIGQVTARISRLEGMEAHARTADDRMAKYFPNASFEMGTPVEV

In the case of `N[C@@H](CS(=O)(=O)O)C(=O)O` [L-cysteate], the midpoint of inhibition, the IC50, lay at 2400 µM.
